Laboratory results: patent US20120270293A1, “STAND[…] TISSUE SPECIMEN PR[…] […] T[…]” (priority 2009, published 2012)

Target: RNase A (Bos taurus, UniProt P61823)
Details: free solution reaction
Procedure: FIG. 13. RNase A at designated amount was incubated with NBF at RT or 4° C. for 5 min and then mixed with 2 μg yeast tRNA and incubated at room temperature for 30 min for RNase A digestion and separated by 2% agarose gel. The tRNA molecules were between 50-100 nucleotides in length.
We have designed a series of direct forward biochemistry experiments to compare various chemical reagents such as formalin, RNA Later, methanol/alcohol, as well as heating conditions (boiling or autoclaving) in inhibiting the RNase bioactivity. […] We also compare the inhibition ability of formalin at room temperature and 4 degree C.

Chain of RNase A (P61823 27-150): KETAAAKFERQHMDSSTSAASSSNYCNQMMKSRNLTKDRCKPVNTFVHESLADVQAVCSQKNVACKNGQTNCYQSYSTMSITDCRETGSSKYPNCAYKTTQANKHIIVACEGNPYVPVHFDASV

Compound: C=O [formalin]
- inhibiting the RNase bioactivity (compared with RNA Later, methanol/alcohol, boiling or autoclaving): best RNase inhibitor
- inhibition ability of formalin at room temperature and 4 degree C (room temperature versus 4 degree C): No difference
